Results taken from patent US20100035858A1, “Novel Compositions and Methods for Binding and Inhibiting 5-HT4 Receptor” (Immune Control, Inc., priority 2008, published 2010).
Entries after “also recorded” stand apart in the source; their conditions may differ.

Assays:
[1] = target: T1, 5-HT1A receptor (Homo sapiens, UniProt P08908); test: 5-HT1A receptor binding; conditions: versus fluphenazine (ICI-1175), FIG. 8
T1 sequence (P08908 1-422): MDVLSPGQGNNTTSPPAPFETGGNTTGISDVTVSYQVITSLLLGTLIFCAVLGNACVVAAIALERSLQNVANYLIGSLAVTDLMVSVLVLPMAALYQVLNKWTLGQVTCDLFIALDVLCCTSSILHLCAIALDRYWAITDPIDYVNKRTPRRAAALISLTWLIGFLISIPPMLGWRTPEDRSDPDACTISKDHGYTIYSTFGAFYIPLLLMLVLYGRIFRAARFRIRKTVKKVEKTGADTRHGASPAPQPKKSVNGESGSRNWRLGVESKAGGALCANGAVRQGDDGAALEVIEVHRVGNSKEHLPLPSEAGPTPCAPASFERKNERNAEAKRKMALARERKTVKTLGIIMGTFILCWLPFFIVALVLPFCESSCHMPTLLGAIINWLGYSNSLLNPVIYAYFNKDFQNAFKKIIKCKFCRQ
Procedure: (§1) The methods employed in this study have been adapted from the scientific literature to maximize reliability and reproducibility. Where presented, IC50 values were determined by a non-linear, least squares regression analysis using the DATA ANALYSIS TOOLBOX (MDL Information Systems, San Leandro, Calif., USA). Where inhibition constants (Ki) are presented, the Ki values were calculated using the equation of Cheng and Prusoff (Cheng, Y., Prusoff, W. H., Biochem. Pharmacol. 22:3099-3108, 1973) or equivalent using the observed IC50 of the tested compound, the concentration of ligand employed in the assay, and historical values for the KD of the ligand.
(§2) The next set of experiments was designed to assess the selective binding of the test compounds to 5-HT receptors. ICI-848, ICI-1259, and ICI-1260 were tested against fluphenazine (ICI-1175) to determine selective binding to 5-HT receptors.

[2] = target: 5-HT4 receptor (Homo sapiens, UniProt Q13639); test: 5-HT4 receptor binding; conditions: versus fluphenazine (ICI-1175), FIG. 8
Chain of 5-HT4 receptor (Q13639 whole entry): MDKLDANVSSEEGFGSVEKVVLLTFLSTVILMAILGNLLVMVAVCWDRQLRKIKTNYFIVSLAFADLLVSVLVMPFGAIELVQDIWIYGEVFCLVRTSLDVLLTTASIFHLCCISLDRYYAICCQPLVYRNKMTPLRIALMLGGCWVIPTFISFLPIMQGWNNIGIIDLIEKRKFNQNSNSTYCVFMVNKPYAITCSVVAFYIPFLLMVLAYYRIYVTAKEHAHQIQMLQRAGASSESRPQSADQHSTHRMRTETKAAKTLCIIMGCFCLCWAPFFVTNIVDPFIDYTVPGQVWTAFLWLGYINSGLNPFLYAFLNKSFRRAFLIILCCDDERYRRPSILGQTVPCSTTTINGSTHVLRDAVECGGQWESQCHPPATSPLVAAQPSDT
Procedure: as §1
(§3) The experiments include contacting a serotonin type 1B, 2A, 2B, 2C, 3, 4, 6, and 7 receptor with a test compound and comparing the level of binding of serotonin or a control ligand with that serotonin type 1B, 2A, 2B, 2C, 3, 4, 6, and 7 receptor with the level of serotonin binding or control ligand binding with an otherwise identical serotonin type 1B, 2A, 2B, 2C, 3, 4, 6, and 7 receptor not contacted with the test compound. […] The skilled artisan would also appreciate, in view of the disclosure provided herein, that standard binding assays known in the art, or those to be developed in the future, can be used to assess the binding of serotonin or a control ligand with a serotonin type 1B. 2A, 2B, 2C, 3, 4, 6, and 7 receptor in the presence or absence of the test compound to identify a useful compound.
as §2
The next set of experiments was designed to assess the Ki values of the tested compounds.

[3] = target: 5-HT2A receptor (Homo sapiens, UniProt P28223); test: 5-HT2A receptor binding; conditions: versus fluphenazine (ICI-1175), FIG. 8
Chain of 5-HT2A receptor (P28223 whole entry): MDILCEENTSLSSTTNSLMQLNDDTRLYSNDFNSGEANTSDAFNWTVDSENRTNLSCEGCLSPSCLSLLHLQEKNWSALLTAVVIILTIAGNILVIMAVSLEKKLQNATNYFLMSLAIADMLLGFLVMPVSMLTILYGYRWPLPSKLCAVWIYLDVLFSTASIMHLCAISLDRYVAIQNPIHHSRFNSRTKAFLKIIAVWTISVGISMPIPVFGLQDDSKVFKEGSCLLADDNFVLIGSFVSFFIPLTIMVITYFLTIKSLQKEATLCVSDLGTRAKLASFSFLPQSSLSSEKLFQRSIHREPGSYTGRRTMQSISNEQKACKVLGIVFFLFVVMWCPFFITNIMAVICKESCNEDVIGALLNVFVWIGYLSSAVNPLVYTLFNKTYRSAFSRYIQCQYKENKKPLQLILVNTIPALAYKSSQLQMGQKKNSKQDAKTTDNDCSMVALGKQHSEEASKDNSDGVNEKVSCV
Procedure: as §1, §3, §2

[4] = test system: Female Lewis rats; test: Toxicity in Female Lewis rats; type: in vivo; conditions: 100 mg/kg ip, in comparison with PBS control
Procedure: The next set of experiments was designed to determine the toxicity of the compounds. Each compound was administered to Female Lewis rats at a dose of 100 mg/kg via ip administration.

[5] = test system: B-cell neoplastic cell line RPMI 8226; test: Inhibition of proliferation of RPMI cells; type: cell-based; conditions: RPMI cell viability, FIG. 1
Excerpt: The next set of experiments was designed to assess compounds that have low levels of brain penetration for the ability of the test compounds to inhibit cellular proliferation. An exemplary in vitro assay is to screen for the ability of the test compounds to inhibit proliferation of the B-cell neoplastic cell line RPMI 8226 (a plasmacytoma derived from a multiple myeloma patient (Matsuoka, et al., 1967, Proc. Soc. Exp. Biol. Med. 125: 1246-1250). However other cell line can be used such as, U266 (established from an IgE-secreting myeloma patient (Nilsson, et al., 1970, Clin. Exp. Immunol., 7: 477-489) and ARH77 (an EBV transformed plasma cell leukemia (Burk, et al., 1978, Cancer Res. 38: 2508-2513).
FIG. 1 is a graph depicting the effects on the test compounds on RPMI cell viability.

[6] = target: histamine type 1 receptor (Homo sapiens, UniProt P35367); test: Binding to non-5-HT receptors: histamine type 1 receptor; conditions: FIG. 12
Chain of histamine type 1 receptor (P35367 whole entry): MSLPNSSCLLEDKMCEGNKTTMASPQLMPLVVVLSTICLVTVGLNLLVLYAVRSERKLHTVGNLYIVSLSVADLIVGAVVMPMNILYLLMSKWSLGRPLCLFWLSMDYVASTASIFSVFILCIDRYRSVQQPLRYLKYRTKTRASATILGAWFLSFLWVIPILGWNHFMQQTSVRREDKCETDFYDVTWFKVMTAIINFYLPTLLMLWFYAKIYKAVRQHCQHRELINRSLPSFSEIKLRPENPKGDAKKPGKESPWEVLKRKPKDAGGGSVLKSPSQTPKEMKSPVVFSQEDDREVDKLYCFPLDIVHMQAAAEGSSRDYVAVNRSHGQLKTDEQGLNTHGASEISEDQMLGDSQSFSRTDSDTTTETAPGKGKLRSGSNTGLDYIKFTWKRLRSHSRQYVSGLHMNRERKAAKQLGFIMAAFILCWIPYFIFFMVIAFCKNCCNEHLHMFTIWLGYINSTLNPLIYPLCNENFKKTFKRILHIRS
Procedure: as §1
The next set of experiments was designed to assess the selective binding of the test compounds to non-5-HT receptors. The compounds tested are as follows: ICI-735, 848, 849, 1259, and 1260. […] It was also observed that the compounds that bound well to 5-HT4 receptor also bound well to histamine type 1 receptor.

[7] = test system: rat model of collagen-induced arthritis; test: Rat model of collagen-induced arthritis, ankle diameter; type: in vivo; conditions: for reduction of ankle diameter: 10 mg/kg ip daily, about 3 days, caliper measurement; for efficacy in reducing ankle diameter compared with Enbrel: rheumatoid arthritis rat model, versus Enbrel
Procedure: The next set of experiments was designed to test the ability of the compounds of the invention on a rat model of collagen-induced arthritis. Briefly, Female Lewis rats were immunized with bovine type 2 collagen 2 mg/mL in 0.01N HAc mixed 1:1 w/ FIA injected id 0.1 mL at each of three sites on back (Rosloniec, E. F., A. H. Kang, L. K. Myers, M. A. Cremer. 1996. Collagen-induced arthritis. R. Coico, and E. Shevach, eds. Current Protocols in Immunology 15.5.1. Weily & Sons, New York.).
FIG. 2 depicts a schematic of the collagen-induced arthritis protocol. Briefly, a test compound of the invention is delivered ip at 10 mg/kg daily, for about 3 days.
FIG. 4 depicts ICI 1260, 1259, 848, 849, 761, 715, and 847 with respect to Enbrel. Additional testing for the effectiveness of compounds ICI 1260, 1259, 848, 849, 761, 715, and 847 at various concentrations (10 mg/kg, 2 mg/kg, 0.4 mg/kg) were conducted, as illustrated in FIGS. 5A-5G. A dose response curve was constructed to illustrate the efficacy of the seven compounds (FIG. 6).

SMILES | binding to 5-HT1A receptor compared to fluphenazine [1] | binding to 5-HT4 receptor compared to fluphenazine [2] | binding to 5-HT2A receptor compared to fluphenazine [3] | toxicity [4] | ability to inhibit proliferation of RPMI cells [5] | binding to histamine type 1 receptor [6] | reduction of ankle diameter ([7]; listed as ICI-848) | efficacy in reducing ankle diameter compared with Enbrel [7] | reduction of ankle diameter ([7]; listed as ICI-1259) | ability to inhibit proliferation of RPMI cells ([5]; listed as ICI-1260) | reduction of ankle diameter ([7]; listed as ICI-1260)
NCC(=O)NCCN1CCC(CCCN2c3ccccc3Sc3ccc(C(F)(F)F)cc32)CC1 [ICI-00848] | decreased binding | increased binding | decreased binding | not toxic | able to inhibit the proliferation of RPMI cells | able to bind histamine type 1 receptor | decrease the ankle diameter to a desirable level; also recorded: most desirable reduction of ankle diameter | more effective in reducing the ankle diameter than Enbrel | – | – | –
CNCC(=O)NCCCN1CCC(CCCN2c3ccccc3Sc3ccc(C(F)(F)F)cc32)CC1 [ICI-01259] | decreased binding | increased binding | decreased binding | not toxic | able to inhibit the proliferation of RPMI cells | able to bind histamine type 1 receptor | – | more effective in reducing the ankle diameter than Enbrel | decrease the ankle diameter to a desirable level; also recorded: most desirable reduction of ankle diameter | – | –
NCC(=O)NCCCN1CCC(CCCN2c3ccccc3Sc3ccc(C(F)(F)F)cc32)CC1 [ICI-01260] | decreased binding | increased binding | decreased binding | not toxic | – | able to bind histamine type 1 receptor | – | more effective in reducing the ankle diameter than Enbrel | – | able to inhibit the proliferation of RPMI cells | decrease the ankle diameter to a desirable level; also recorded: most desirable reduction of ankle diameter
